Patent US6900019B1, “In-situ cell extraction and assay method” (Amersham Biosciences UK Limited, priority 1997, dated 2005)
Several values for one entry are separate records, joined by “and”; a condition that tells them apart may be missing. Equal values may be shown once.

Experiments:
[1] = system: Chinese hamster ovary (CHO) cells; experiment: "Total" cellular cAMP from forskolin-stimulated CHO cells; format: cell-based; conditions: 100 μM forskolin, 20 minutes
Protocol: Chinese hamster ovary (CHO) cells were cultured in HAM's media containing 10% (v/v) foetal calf serum (FCS). For cAMP assays, cells were seeded into clear-bottomed 96-well tissue-culture plates with opaque walls (tissue-culture grade; see materials) in HAM's media, (see experiment 5) at 40 μl/well (between 10^4 and 10^6 cells/well). Cells were cultured overnight at 37° C. in a 95% air/5% CO2 atmosphere. The next day, sequestration and lysis buffers (2.5% alpha-cyclodextrin, 1% and 10% DTAB in assay buffer) were prepared. Antisera (at 1/11000 dilution), tracer (10000-20000 cpm) and SPA beads (20 mg/ml) were reconstituted with assay buffer containing 2.5% (w/v) alpha-cyclodextrin. […]
DTAB (100 μl, 1% w/v in assay buffer) was added to the non-specific binding wells. […] Following incubation, the plate was transferred directly to a TopCount™ scintillation counter and radioactivity detected. Non-specific binding was determined in the absence of specific rabbit antisera. Cyclic AMP levels were determined using log/linear analysis with reference to the standard curve. […]
Chinese hamster ovary cells were seeded at a density of 100,000 cells per well and cultured overnight to confluence in Viewplates as described under the methods section. […] The cell culture supernatant was not removed before the cell lysis step. cAMP levels were measured with the SPA radioimmunoassay procedure.

[2] = system: rabbit anti-cAMP sera (antigen:antibody binding); experiment: Scintillation proximity radioimmunoassay for cAMP: standard curves with lysis reagents and sequestrants; conditions: for [125I]cAMP bound to SPA beads, counts per minute: no sequestrant; for restoration of antigen:antibody binding by different sequestrants: 2.5% (w/v) sequestrant, standards in 1% DTAB
Protocol: All assays were carried out in microtitre plates compatible with a microtitre plate beta scintillation counter. Standards (50 μl; 0.2-12.8 pmol/well), antisera (50 μl; at 1:11000 dilution), tracer (50 ul; 10000-20000 cpm) are added to anti-rabbit coated SPA beads (50 μl; 20 mg/ml). Non-specific binding was determined in the absence of specific rabbit antisera. SPA anti-rabbit reagent is placed onto a magnetic stirrer to ensure a homogeneous suspension before pipetting. All wells contained a total volume of 200 μl. The plates were sealed and incubated at room temperature (15-30° C.) for 15-20 hours. The amount of [^125I]cAMP bound to the SPA fluomicrospheres was determined by counting in a microtitre plate beta scintillation counter for 2 minutes.
Experiments were set up with:— • a) Working standards (4-256 pmol/ml; 0.2-12.8 pmol/well) were prepared in assay buffer (0.05M sodium acetate buffer containing 0.01% sodium azide) only (control) or assay buffer containing lysis reagent (e.g. DTAB, CPC or SDS; see experiment 1) at various concentrations. • b) Rabbit anti-cAMP sera prepared in assay buffer only (control) or assay buffer containing sequestrating agent at various concentrations depending on the experiment. • c) Radioactive tracer: adenosine 3′ 5′-cyclic phosphoric acid 2′-O-succinyl-3-[^125I] iodotyrosine methyl ester prepared in assay buffer only (control) or assay buffer containing sequestrating agent at various concentrations depending on the experiment. • d) Donkey anti-rabbit IgG coupled to scintillation proximity fluomicrospheres prepared in assay buffer only (control) or assay buffer containing sequestrating agent at various concentrations depending on the experiment. Experiment 1: Inhibition of Antigen and Antibody Binding by Several Lysis Reagents Method
In these experiments, standard curves were prepared for cAMP using the SPA immunoassay technique, described above, where working standards of cAMP were prepared in several lysis reagents at 1% (w/v) or 2% (w/v) final concentration. The detergents investigated included dodecyl trimethyl ammonium bromide (DTAB; Sigma Chemical Co. D8638), benzethonium chloride (BZC; Aldrich; B470-8), cetyl pyridinium chloride (CPC; Sigma Chemical Co; C9002), sodium dodecyl sulphate (SDS, Sigma chemical Co; L4509) and N-dodecyl-N,N-dimethyl-3-ammonio-1-propanesulphonate (DDAPS; Sigma Chemical Co.; D4516).
In these experiments, standard curves for cAMP were prepared using the SPA immunoassay technique described above, where working standards of cAMP were prepared in 1% (w/v), 1.5% (w/v) or 2% (w/v) lysis reagents (DTAB, SDS or CPC). The control consisted of no lysis reagent or cyclodextrin added. The effect including 2.5% (w/v) alpha-cyclodextrin (alpha-CD) (Sigma Chemical Co.; C4642) on antigen:antibody binding was investigated. Here, tracer, antisera and SPA beads were prepared in assay buffer containing 2.5% (w/v) alpha-CD. A second control tested the effect of 2.5% (w/v) alpha-CD on the standard curve without addition of lysis reagent.
In this experiment, standard curves for cAMP were prepared using the SPA radioimmunoassay where working standards of cAMP were prepared in 1% (w/v) DTAB. The effect of including 1% (w/v), 2% (w/v), 2.5% (w/v) and 5% (w/v) alpha-cyclodextrin on antigen:antibody binding was investigated. Here, tracer, antisera and SPA beads were prepared in assay buffer containing alpha-CD at the above concentrations. The control consisted of no lysis or cyclodextrin added to the assay.
In this experiment, standard curves for cAMP were prepared using the SPA immunoassay technique where working standards were prepared 1% (wt) lysis reagent (DTAB). The effect of including 2.5% (w/v) alpha-cyclodextrin (CD) 2.5% (w/v) beta-cyclodextrin (beta-CD) (Sigma is Chemical Co.; C4767) and 2.5% (w/v) gamma-cyclodextrin (gamma-CD) (Sigma Chemical Co.; 4892) on antigen:antibody binding was investigated. […]

[3] = 1% lysis reagent, 0.2 pmol cAMP/well
[4] = 1% lysis reagent, 0.4 pmol cAMP/well
[5] = 1% lysis reagent, 0.8 pmol cAMP/well
[6] = 1% lysis reagent, 1.6 pmol cAMP/well
[7] = 1% lysis reagent, 3.2 pmol cAMP/well
[8] = 1% lysis reagent, 6.4 pmol cAMP/well
[9] = 1% lysis reagent, 12.8 pmol cAMP/well
[10] = 1% lysis reagent, NSB (no specific antisera)
[11] = 1% lysis reagent, Zero standard
[12] = 2% lysis reagent, 0.2 pmol cAMP/well
[13] = 2% lysis reagent, 0.4 pmol cAMP/well
[14] = 2% lysis reagent, 0.8 pmol cAMP/well
[15] = 2% lysis reagent, 1.6 pmol cAMP/well
[16] = 2% lysis reagent, 3.2 pmol cAMP/well
[17] = 2% lysis reagent, 6.4 pmol cAMP/well
[18] = 2% lysis reagent, 12.8 pmol cAMP/well
[19] = 2% lysis reagent, NSB (no specific antisera)
[20] = 2% lysis reagent, Zero standard

Question: Which “Total cellular cAMP levels” value [1] does the source give for `C=C[C@@]1(C)CC(=O)[C@]2(O)[C@@]3(C)[C@@H](O)CCC(C)(C)[C@@H]3[C@H](O)[C@H](OC(C)=O)[C@@]2(C)O1` [forskolin, Forskolin] here?
Answer: over 170 pmol/10^6 cells

Question: What does the source list for `CC(C)(C)CC(C)(C)c1ccc(OCCOCC[N+](C)(C)Cc2ccccc2)cc1` [BZC, benzethonium chloride]?
Answer: [125I]cAMP bound to SPA beads, counts per minute [2, 3]: 644 cpm; [125I]cAMP bound to SPA beads, counts per minute [2, 4]: 501 cpm; [125I]cAMP bound to SPA beads, counts per minute [2, 5]: 473 cpm; [125I]cAMP bound to SPA beads, counts per minute [2, 6]: 426 cpm; [125I]cAMP bound to SPA beads, counts per minute [2, 7]: 261 cpm; [125I]cAMP bound to SPA beads, counts per minute [2, 8]: 16 cpm; [125I]cAMP bound to SPA beads, counts per minute [2, 9]: 6 cpm; [125I]cAMP bound to SPA beads, counts per minute [2, 10]: 111 cpm; [125I]cAMP bound to SPA beads, counts per minute [2, 11]: 951 cpm; [125I]cAMP bound to SPA beads, counts per minute [2, 12]: 308 cpm; [125I]cAMP bound to SPA beads, counts per minute [2, 13]: 338 cpm; [125I]cAMP bound to SPA beads, counts per minute [2, 14]: 222 cpm; [125I]cAMP bound to SPA beads, counts per minute [2, 15]: 156 cpm; [125I]cAMP bound to SPA beads, counts per minute [2, 16]: 143 cpm; [125I]cAMP bound to SPA beads, counts per minute [2, 17]: 96 cpm; [125I]cAMP bound to SPA beads, counts per minute [2, 18]: 70 cpm; [125I]cAMP bound to SPA beads, counts per minute [2, 19]: 117 cpm; [125I]cAMP bound to SPA beads, counts per minute [2, 20]: 486 cpm

Question: With `CCCCCCCCCCCC[N+](C)(C)CCCS(=O)(=O)[O-]` [DDAPS, N-dodecyl-N,N-dimethyl-3-ammonio-1-propanesulphonate] as the molecule, how does the “[125I]cAMP bound to SPA beads, counts per minute” value (“[125I]cAMP bound … per minute” for short) [2, 3] read?
Answer: 969 cpm and 762 cpm

Question: And the “[125I]cAMP bound … per minute” value [2, 4]?
Answer: 849 cpm and 719 cpm

Question: And the “[125I]cAMP bound … per minute” value [2, 5]?
Answer: 725 cpm and 689 cpm

Question: And the “[125I]cAMP bound … per minute” value [2, 6]?
Answer: 610 cpm and 559 cpm

Question: And the “[125I]cAMP bound … per minute” value [2, 7]?
Answer: 425 cpm and 446 cpm

Question: What about the “[125I]cAMP bound … per minute” value [2, 8] of the same molecule?
Answer: 311 cpm and 326 cpm

Question: What about the “[125I]cAMP bound … per minute” value [2, 9] of the same molecule?
Answer: 204 cpm and 173 cpm

Question: And the “[125I]cAMP bound … per minute” value [2, 10]?
Answer: 181 cpm and 137 cpm

Question: And the “[125I]cAMP bound … per minute” value [2, 11]?
Answer: 1109 cpm and 906 cpm

Question: And the “[125I]cAMP bound … per minute” value [2, 12]?
Answer: 416 cpm and 423 cpm

Question: What about the “[125I]cAMP bound … per minute” value [2, 13] of the same molecule?
Answer: 426 cpm and 370 cpm

Question: And the “[125I]cAMP bound … per minute” value [2, 14]?
Answer: 429 cpm and 350 cpm

Question: What about the “[125I]cAMP bound … per minute” value [2, 15] of the same molecule?
Answer: 339 cpm and 290 cpm

Question: And the “[125I]cAMP bound … per minute” value [2, 16]?
Answer: 303 cpm and 252 cpm

Question: And the “[125I]cAMP bound … per minute” value [2, 17]?
Answer: 215 cpm and 194 cpm

Question: What about the “[125I]cAMP bound … per minute” value [2, 18] of the same molecule?
Answer: 109 cpm and 115 cpm

Question: And the “[125I]cAMP bound … per minute” value [2, 19]?
Answer: 129 cpm and 130 cpm

Question: And the “[125I]cAMP bound … per minute” value [2, 20]?
Answer: 579 cpm and 510 cpm

Question: For `CCCCCCCCCCCCOS(=O)(=O)[O-].[Na+]` [SDS, sodium dodecyl sulphate], which “[125I]cAMP bound … per minute” value ([2]; 1% lysis reagent, 0.2 pmol cAMP/well, sulphate) is on record?
Answer: 1052 cpm and 1128 cpm

Question: What about the “[125I]cAMP bound … per minute” value ([2]; 1% lysis reagent, 0.4 pmol cAMP/well, sulphate) of the same molecule?
Answer: 973 cpm and 1052 cpm

Question: What about the “[125I]cAMP bound … per minute” value ([2]; 1% lysis reagent, 0.8 pmol cAMP/well, sulphate) of the same molecule?
Answer: 913 cpm and 973 cpm

Question: What about the “[125I]cAMP bound … per minute” value ([2]; 1% lysis reagent, 1.6 pmol cAMP/well, sulphate) of the same molecule?
Answer: 859 cpm and 913 cpm

Question: And the “[125I]cAMP bound … per minute” value ([2]; 1% lysis reagent, 3.2 pmol cAMP/well, sulphate)?
Answer: 837 cpm and 859 cpm

Question: What about the “[125I]cAMP bound … per minute” value [2, 8] of the same molecule?
Answer: 640 cpm

Question: And the “[125I]cAMP bound … per minute” value [2, 9]?
Answer: 394 cpm

Question: And the “[125I]cAMP bound … per minute” value [2, 10]?
Answer: 118 cpm

Question: What about the “[125I]cAMP bound … per minute” value [2, 11] of the same molecule?
Answer: 1149 cpm

Question: How did the “restoration of antigen:antibody binding by different sequestrants” value [2] turn out when `OC[C@H]1O[C@@H]2O[C@H]3[C@H](O)[C@@H](O)[C@@H](O[C@H]4[C@H](O)[C@@H](O)[C@@H](O[C@H]5[C@H](O)[C@@H](O)[C@@H](O[C@H]6[C@H](O)[C@@H](O)[C@@H](O[C@H]7[C@H](O)[C@@H](O)[C@@H](O[C@H]8[C@H](O)[C@@H](O)[C@@H](O[C@H]1[C@H](O)[C@H]2O)O[C@@H]8CO)O[C@@H]7CO)O[C@@H]6CO)O[C@@H]5CO)O[C@@H]4CO)O[C@@H]3CO` [beta-cyclodextrin] was run?
Answer: less effective

Question: Which “restoration of antigen:antibody binding by different sequestrants” value [2] does the source give for `OC[C@H]1O[C@@H]2O[C@H]3[C@H](O)[C@@H](O)[C@@H](O[C@H]4[C@H](O)[C@@H](O)[C@@H](O[C@H]5[C@H](O)[C@@H](O)[C@@H](O[C@H]6[C@H](O)[C@@H](O)[C@@H](O[C@H]7[C@H](O)[C@@H](O)[C@@H](O[C@H]8[C@H](O)[C@@H](O)[C@@H](O[C@H]9[C@H](O)[C@@H](O)[C@@H](O[C@H]1[C@H](O)[C@H]2O)O[C@@H]9CO)O[C@@H]8CO)O[C@@H]7CO)O[C@@H]6CO)O[C@@H]5CO)O[C@@H]4CO)O[C@@H]3CO` [gamma cyclodextrin, gamma-cyclodextrin] here?
Answer: restored binding to an optimal degree
